Measured values from patent publication US20090023771A1, “PHARMACEUTICAL COMPOSITION COMPRISING A PROTON PUMP INHIBITOR AND PROTEIN COMPONENT” (The Curators of the University of Missouri, priority 2007, published 2009).

Assay: Degradation of omeprazole (PPI) by stomach acid when combined with buffering agent and/or protein component (FIGS. 1-6)
Assay type: physicochemical
Conditions: 40 mg omeprazole with 800 mg aluminum glycinate and 800 mg sodium bicarbonate (20:1 each); FIGS. 5 and 6; compared with sodium bicarbonate and omeprazole alone (FIGS. 3 and 4)
Procedure: FIG. 2 is a line graph illustrating the degradation of 40 mg omeprazole when it is administered with 800 mg of L-carnosine and 800 mg sodium bicarbonate (20:1 ratio of L-carnosine to omeprazole and sodium bicarbonate to omeprazole). FIG. 4 is a line graph illustrating the degradation of 40 mg omeprazole when it is administered with 1600 mg sodium bicarbonate (40:1 ratio). FIG. 6 is a line graph illustrating the degradation of 40 mg omeprazole when it is administered with 800 mg of aluminum glycinate and 800 mg sodium bicarbonate (20:1 ratio of aluminum glycinate to omeprazole and sodium bicarbonate to omeprazole).

- degradation of the omeprazole: immediate degradation
SMILES: COc1ccc2[nH]c([S+]([O-])Cc3ncc(C)c(OC)c3C)nc2c1 (stereo not shown) [omeprazole]
